Where two headings read alike, the source gives them in different places.
How the values were obtained:
healthy adults = experiment: Safety assessment (adverse events) in the phase 1 study; assay type: in vivo, human
Protocol: Participants were monitored for adverse events (AEs) during the study, including assessments for clinical symptoms, biochemical, hematologic, and urinalysis laboratory results, physical examinations, 12-lead electrocardiograms, and vital signs. AEs were assessed for seriousness, severity, and relationship to the drug. AEs were assigned to the last study treatment administered at the time of onset, starting during or after the administration of the first dose. AEs that occurred after discharge were assigned to the last study treatment received for up to 30 days after the last dose of fedratinib.

[1] = In vitro drug recovery from the nasogastric tube and stability in suspension (data on file); assay type: physicochemical; conditions: in vitro studies
Description: Reduced exposure was also unlikely to be due to misplacement of the nasogastric tube, as placement was confirmed through X-ray imaging (data on file). The differences in exposure to fedratinib between treatments 2B, 2C, and 2A were likely to be due to interparticipant variability. Furthermore, the 90% CI for the difference in exposure to fedratinib between treatments 2B and 2A fell within the 0.8–1.25 range conventionally defined as having no clinical effect.

[2] = test system: patients with myelofibrosis resistant/intolerant to prior ruxolitinib; design: method as in doi:10.1182/blood-2022-156669; conditions: fedratinib 400 mg/day, FREEDOM trial, 38 patients; cited from earlier work
[3] = design: method as in earlier work; conditions: 400 mg dosing in patients with myelofibrosis; range 2–4 h; cited from earlier work
[4] = design: method as in PMID 27136912; conditions: 100 mg and 500 mg doses, healthy volunteers; cited from earlier work
[5] = test system: patients with myelofibrosis; conditions: cited from earlier work

SMILES: Cc1cnc(Nc2ccc(OCCN3CCCC3)cc2)nc1Nc1cccc(S(=O)(=O)NC(C)(C)C)c1 [fedratinib]
- Deaths or serious/severe AEs (healthy adults; during the study, all treatments): no deaths or serious/severe AEs were reported
- AE constipation, participants (healthy adults; human, in vivo): 12.1%
- AE diarrhea, participants (healthy adults; human, in vivo): 10.3%
- AE somnolence, participants (healthy adults; human, in vivo): 10.3%
- Moderate AEs reported (number of AEs) (healthy adults; human, in vivo): 4
- Participants discontinued due to AEs (healthy adults; human, in vivo): 3 participants
- Participants with at least 1 AE (healthy adults; human, in vivo): 65.5%
- Drug recovery from the nasogastric tube [1]: near-complete drug recovery
- Stability in suspension [1]: stable up to 1 h in suspension
- Patients achieving ≥ 35% spleen volume reduction at the end of cycle 6 [2]: 25.7%
- Patients achieving ≥ 50% reduction in total symptom score at end of cycle 6 [2]: 44.4%
- Patients with best overall response of ≥ 35% spleen volume reduction at any time [2]: 62.9%
- Time to peak concentration, median [3]: 3 h
- Increases in exposure (Cmax, AUC) when administered directly after food vs 10-h fasted [4]: < 25%
- Terminal elimination half-life (t½), fed vs fasted conditions [4]: remained unaffected
- Patients who experienced nausea ([5]; FREEDOM study): 39.5%
- Patients who experienced nausea ([5]; JAKARTA trial): 62%
